# From patent US10231472B2, “Zilpaterol animal premix formulation” (Intervet Inc., priority 2015, dated 2019)
# Counter-ions that a name gives are not always drawn.
# What was measured:
# [1] = Solubility of zilpaterol HCl in solvents; type: physicochemical
# Experimental: For some drugs that have a good solubility profile formulations can be prepared by dissolving the drug into a solvent and then mixing the resulting solution with additional excipient/carriers to prepare a suitable dosage form (premix, tablets, etc.). This approach works best when the drug concentration is very low and the drug has good solubility. If an excess amount of liquid is added during manufacture a wet mass can be formed that is difficult to process and needs to be dried to remove excess solvent. Drying adds additional cost and complexity to the manufacturing process.
# (§1) However since solubility of the drug was poor in propylene glycol, a significant additional amount of propylene glycol was needed (27.6%) to fully solubilize the drug. Since propylene glycol is viscous/sticky, this larger amount of propylene glycol could not be added to the corn cob carrier without causing the product to be sticky which results in poor flow properties. To address this problem, a premix containing only 6% propylene glycol and 2% water was prepared by heating the liquid mixture of zilpaterol HCl to a high temperature and creating a supersaturation of zilpaterol HCl in the propylene glycol/water vehicle. This was successful in fully solubilizing the zilpaterol HCl without needing to add additional liquids. […] When this hot supersaturated solution is added to a dry carrier, it is easily absorbed and mixed and the combination becomes dry and free flowing. Excellent uniformity is obtained, and product safety is improved since free solid drug particles are avoided.
# [2] = Stability of zilpaterol in liquid vehicles at high temperature; type: physicochemical
# Experimental: as §1
# Propylene glycol is the preferred solvent.
smiles,measurement,setting,value
"CC(C)NC1CCn2c(=O)[nH]c3cccc(c32)C1O (centres unmarked) [Zilpaterol HCl, 4,5,6,7-tetrahydro-7-hydroxy-6-(isopropylamino) imidazo[4,5,1-jk]-[1]benzazepin-2(1H)-one]",solubility of the drug in premix liquid,"[1]; premix with 0.8% zilpaterol HCl, 6% propylene glycol and 2% water, without heating",not fully soluble
same,solubility in propylene glycol,[1]; propylene glycol,2.9%
same,solubility,[1]; water,130 mg/mL
same,stability in propylene glycol alone,"[2]; after 45 days at 60° C., propylene glycol alone",95.2%
same,"stability in solution, temperature",[2]; supersaturated solution in propylene glycol/water vehicle,≤ 90 °C
